The test system of data set [1] is HER2 high-expressing cancer cells NCI-N87. The experiment in a line: Cytotoxicity assay (CellTiter-Glo cell viability), NCI-N87. The note with it: for IC50: Homo sapiens, NCI-N87, 96 h, 96 h treatment. It counts as cell-based, human. How it is done: (§1) Cytotoxicity assays were performed using HER2 high-expressing cancer cells NCI-N87 (FIG. 1) and SK-BR-3 (FIG. 2), as well as a HER2 negative cell line MDA-MB-468 (FIG. 3) to analyze the effect of conjugates on tumor cell proliferation. The tested articles included conjugates EC302-2-4-1-1 and EC301-2-1-1-1, and a small molecule eribulin (structure is depicted above). In brief, 5000 cells were plated in 96-well plates, and cells were able to attach overnight. Cells were treated with indicated drugs with various concentrations for 96 h. Cell viabilities were examined by CellTiter-Glo® Luminescent Cell Viability Assay, and percentage of cell viability was calculated.
(§2) Cytotoxicity assays were performed using HER2 high-expressing cancer cells NCI-N87 (FIG. 4) and SK-BR-3 (FIG. 5), as well as a HER2 negative cell line MDA-MB-468 (FIG. 6) to analyze the effect of conjugates on tumor cell proliferation. […] In brief, 5000 cells were plated in 96-well plates, and cells were able to attach overnight. Cells were treated with indicated drugs with various concentrations for 96 h. Cell viabilities were examined by CellTiter-Glo® Luminescent Cell Viability Assay, and percentage of cell viability was calculated.
Background: ATP-based viability assays read luminescence as a measure of living cells.

Data set [2] concerns HER2 high-expressing cancer cells SK-BR-3. In words: Cytotoxicity assay (CellTiter-Glo cell viability), SK-BR-3. It counts as cell-based. The note with it: for IC50: Homo sapiens, SK-BR-3, 96 h, 96 h treatment. How it is done: as §1, §2
Data set [3] concerns HER2 negative cell line MDA-MB-468. In words: Cytotoxicity assay (CellTiter-Glo cell viability), MDA-MB-468. It counts as cell-based. The following applies: for IC50: Homo sapiens, MDA-MB-468, 96 h, 96 h treatment. As for the experimental part:
Cytotoxicity assays were performed using HER2 high-expressing cancer cells NCI-N87 (FIG. 1) and SK-BR-3 (FIG. 2), as well as a HER2 negative cell line MDA-MB-468 (FIG. 3) to analyze the effect of conjugates on tumor cell proliferation. […] In brief, 5000 cells were plated in 96-well plates, and cells were able to attach overnight. Cells were treated with indicated drugs with various concentrations for 96 h. Cell viabilities were examined by CellTiter-Glo® Luminescent Cell Viability Assay, and percentage of cell viability was calculated.
as §2

In data set [4] the test system is FGFR3 high-expressing cancer cells RT112/84. In words: Cytotoxicity assay (CellTiter-Glo cell viability), RT112/84. The note with it: RT112/84, FGFR3-positive; 96 h. It counts as cell-based. As for the experimental part:
(§3) Cytotoxicity assays were performed using FGFR3 high-expressing cancer cells RT112/84 and RT4, FGFR3 negative cancer cell MCF-7 (FIG. 7) to analyze the effect of conjugates on tumor cell proliferation. The tested articles included conjugate EC302-2-4-1-2, and a small molecule eribulin (structure is depicted above). In brief, 2000 cells (RT112/84) or 5000 cells (RT4 or MCF-7) were plated in 96-well plates, and cells were able to attach overnight. Cells were treated with indicated drugs with various concentrations for 96 h. Cell viabilities were examined by CellTiter-Glo® Luminescent Cell Viability Assay, and percentage of cell viability was calculated.

The test system of data set [5] is FGFR3 high-expressing cancer cells RT4. In words: Cytotoxicity assay (CellTiter-Glo cell viability), RT4. The class given is cell-based. The note with it: RT4, FGFR3-positive; 96 h. As for the experimental part: as §3
In data set [6] the test system is FGFR3 negative cancer cell MCF-7. In words: Cytotoxicity assay (CellTiter-Glo cell viability), MCF-7. It counts as cell-based. The note with it: 96 h. How it is done:
as §3

Consider one compound from patent US20260077056A1, “LINKER-PAYLOAD COMPOUND, CONJUGATES AND APPLICATIONS THEREOF” (priority 2022, published 2026).

The IC50 is the concentration at which inhibition is half-maximal. A high value points to lower potency. As to `C=C1C[C@@H]2CC[C@@]34C[C@H]5O[C@H]6[C@@H](O3)[C@H]3O[C@H](CC[C@@H]3O[C@H]6[C@H]5O4)CC(=O)C[C@@H]3[C@@H](OC)[C@@H](C[C@H](O)CN)O[C@H]3C[C@H]3O[C@@H](CC[C@@H]1O2)C[C@@H](C)C3=C` [Eribulin], the “cell proliferation-inhibitory effect, in words” value is “sensitive” in data set [1] (Effect Example 1, NCI-N87, HER2 high) and “sensitive” in data set [2] (Effect Example 1, SK-BR-3, HER2 high). Further, the IC50 in data set [1] (Effect Example 1, Table 4) came out at 0.448 nM; in data set [1] (Effect Example 2, Table 5), 0.501 nM; in data set [2] (Effect Example 1, Table 4), 0.298 nM; in data set [2] (Effect Example 2, Table 5), 0.211 nM; in data set [3] (Effect Example 1, Table 4), 0.211 nM; in data set [3] (Effect Example 2, Table 5) it was 0.094 nM. For the same compound, the “cytotoxicity, in words” value is “sensitive” in data set [3] (Effect Example 1, MDA-MB-468, HER2 negative) and “sensitive” in data set [6]. Besides, the “effect on cell proliferation, in words” value in data set [4] and in data set [5] was “sensitive” in each case.
